Results as given in patent US20190284129A1, “LIPID COMPOUNDS AND COMPOSITIONS AND THEIR OPTHALMIC USE” (BIOZEP AS, priority 2015, published 2019).

Test system: ARPE-19 cells
Assay: oxidative stress (tert-butyl hydroperoxide) cytolysis assay in ARPE-19 retinal pigment epithelial cells
Format: cell-based
Settings: for inhibition of the cytotoxicity induced by t-BHP: BIZ-102 10 μM
Method: In order to evaluate the potential of BIZ-101 to protective the eye from oxidative stress damage the compound was tested in a cell based assay. Oxidative stress was induced in an ARPE-19 cell line using tert-butyl hydroperoxide at different concentrations. The cellular viability was kinetically monitored and measured by analysing the plasma membrane integrity based on the incorporation of a non-permeant and fluorescent DNA intercalating agent that selectively stain cytolytic cells with comprised plasma membranes.
(§1) The ARPE-19 cell line was seeded and cultured in DMEM-F12 medium+10% SVF for 24 hrs in a 96 well plate. Cells were pre-treated or not with either fenofibric acid (25 μM) or compound BIZ-101 (10 μM) during this 24 hr period. After 24 hrs, the different concentrations of t-butyl hydroperoxide were added in the presence of a fluorescent DNA intercalating agent for the following monitoring. Live content time-lapse imaging was performed with a sampling rate of 1 image every 2 hr over a 96 hrs period. The number of fluorescent/cytolytic cells were counted and reported during the experiment. The treatment conditions were tested in one experiment session in a triplicate format.
Fenofibric acid was used at 25 μM and was ordered from Sigma Aldrich. The day of the pre-treatment, a 25 mM stock solution of fenofibric acid was prepared in DMSO and diluted in the complete culture medium at 25 μM. 100 μL of this solution or 100 μL of complete culture medium+0.1% DMSO replaced the 100 μL of the complete culture medium already present in the well. The day of the treatment with t-butyl hydroperoxide, a 2 times concentrated solution of fenofibric acid was freshly diluted in the complete culture medium and 50 μL of this solution or 50 μL of complete culture medium+0.2% DMSO were added to the 100 μL of the culture medium already present in the well.
Compound BIZ-101 was tested at a final concentration of 10 μM. A 10 mM predilution was prepared in DMSO from a 10 mM stock solution. The 10 mM solution of BIZ 101 was diluted in the complete culture medium at 10 μM. 100 μL, of this solution or 100 μL of the complete culture medium+0.1% DMSO replaced the 100 μL, of the complete culture medium already present in the well. The day of the treatment with t-butyl hydroperoxide, a 2 times concentrated solution of BIZ 101 was freshly diluted in the complete culture medium and 50 μL of this solution or 50 μL of complete culture medium+0.2% DMSO were added to the 100 μL of the culture medium already present in the well.
Preparation of the tert-butyl hydroperoxide [tBHP] solution: 0, 0.01 mM, 0.03 mM, 0.1 mM, 0.3 mM, 1 mM, 3 mM and 10 mM. A 4 times concentrated solution of tBHP was freshly diluted in the complete culture medium for each of the concentrations to be tested. 50 μL of the 4 times concentrated solution was added to the 150 μL of the cultured medium.
In order to evaluate the potential of BIZ-102 to protect the eye from oxidative stress damage the compound was tested in a cell based assay similar to Example 24 with the following changes. The oxidative stress in the ARPE-19 cell line was induced by using 3 different concentrations of tBHP: 10 μM, 30 μM and 100 μM and BIZ-102 was tested in 2 different concentrations: 1 μM and 10 μM.
as §1, with “with” for “with either fenofibric acid (25 μM) or”, “BIZ-102 (1 μM and 10” for “BIZ-101 (10”
Compound BIZ-102 was tested at a final concentration of 1 and 10 μM. […]

CCCCC/C=C\C/C=C\C/C=C\C/C=C\CCC(CC)C(=O)O (stereo not drawn) [BIZ-102, (All-Z) 2-ethyl-5,8,11,14-eicosatetraenoic Acid]
inhibition of the cytotoxicity induced by t-BHP (10 μM t-BHP, FIG. 9A): significant inhibition | inhibition of the cytotoxicity induced by t-BHP (30 μM t-BHP, FIG. 9B): significant inhibition | effect on retinal pigment epithelial cells during conditions of oxidative stress (overall conclusion): protective effect
